Experimental data published in article PMC9362872 (Journal of Clinical Oncology, 2022).

What was measured:
[1] = assay type: in vivo, human
[2] = assay type: in vivo, human; remark: listed apart in the source
[3] = 28-day GLP dog toxicology studies; assay type: in vivo; conditions: dog (most sensitive species)
[4] = Projected human oral half-life; conditions: projection before first-in-human dosing
[5] = multiple doses of 150 mg and 300 mg once daily, individual patients
[6] = RP2D 600 mg twice a day (20 patients), any grade

With `C=C(F)C(=O)N1CCN(c2nc(OC[C@@H]3CCCN3C)nc3c2CCN(c2cccc4cccc(Cl)c24)C3)C[C@@H]1CC#N` [Adagrasib] the PTR [1, 5] was “approximately three”, the drug accumulation [1, 5] was “approximately three- to four-fold” and the accumulation of adagrasib ([1]; multiple doses of 600 mg twice a day, steady state) was “approximately five- to six-fold”. For the same molecule, the DLTs ([2]; 150 mg, 300 mg, 600 mg once daily, one patient each) was “No DLTs”, the “patients who experienced DLTs” value ([2]; 600 mg twice a day, DLT-evaluable patients) was “three of the 18” and the “patients who experienced a DLT” value ([2]; 600 mg twice a day, first cohort of six evaluable patients) was “one patient”. The “TRAE fatigue, grade 3/4” value ([2]; RP2D 600 mg twice a day) was 15.0%, the TRAE diarrhea [2, 6] was 70.0% and the TRAE fatigue [2, 6] was 45.0%. For the same molecule, the TRAE nausea [2, 6] was 80.0%, the TRAE vomiting [2, 6] was 50.0% and the maximum tolerated dose ([2]; all dose cohorts) was “No maximum tolerated dose was formally defined”. The “patients who experienced one or more DLTs” value ([2]; all dose levels, 23 DLT-evaluable patients) was 21.7%, the “recommended phase II dose (RP2D)” value ([2]; oral, based on safety, tolerability and PK) was 600 mg twice a day and the “highest nonseverely toxic dose (HNSTD)” value [3] was 25 mg/kg/day. For the same molecule, the “projected human oral t1/2” value [4] was “approximately 15 hours”.
